Like-named read-outs stand apart in the source and are kept apart here. Where a SMILES comes first, the peptide text is derived from it. Bridges are numbered along the chain shown (N, C = ends). [ ]: non-standard residue; d: D form. Tle = CC(C)(C)[C@H](N)C(=O)O; dDab = NCC[C@@H](N)C(=O)O; NMeA = CN[C@@H](C)C(=O)O; Orn = NCCC[C@H](N)C(=O)O; Dab = NCC[C@H](N)C(=O)O; Dap = NC[C@H](N)C(=O)O
What was measured:
[1] = system: human red blood cells (hRBC); assay: Hemolysis: hemolytic activity at 100 μg/mL, 1 h at 37° C.
Procedure: Lyophilized peptides were weighed on a Microbalance (Mettler MT5) and dissolved in sterile water to a final concentration of 1 mg/mL. Stock solutions were kept at +4° C., light protected.
The peptides were tested for their hemolytic activity against human red blood cells (hRBC). Fresh hRBC were washed three times with phosphate buffered saline (PBS) and centrifuged for 5 min at 3000×g. Compounds (100 μg/mL) were incubated with 20% hRBC (v/v) for 1 h at 37° C. and shaking at 300 rpm. The final erythrocyte concentration was approximately 0.9×10^9 cells/mL. A value of 0% and 100% cell lyses, respectively, was determined by incubation of hRBC in the presence of PBS containing 0.001% acetic acid and 2.5% Triton X-100 in H2O, respectively. The samples were centrifuged, the supernatants were 8-fold diluted in PBS buffer and the optical densities (OD) were measured at 540 nm.
Percent hemolysis was calculated as follows: (OD540peptide/OD540H2O)×100%.

[2] = system: Klebsiella pneumoniae ATCC 13883; assay type: cell-based
Procedure: (§1) Stock solutions were kept at +4° C., light protected.
(§2) The selective antimicrobial activities of the peptides were determined in 96-well plates (Greiner, polystyrene) by the standard NCCLS broth microdilution method (National Committee for Clinical Laboratory Standards 1993. Methods for dilution antimicrobial susceptibility tests for bacteria that grow aerobically, 3rd ed. Approved standard M7-A6; National Committee for Clinical laboratory standards, Wayne, Pa.) with slight modifications. Inocula of the microorganisms were diluted into Mueller-Hinton II (MH, cation adjusted) broth and compared with a 0.5 McFarland standard to give appr. 10^6 colony forming units (CFU)/mL. Aliquots (90 μl) of inoculate were added to 10 μl of MH broth+P-80 (Polysorbate 80, 0.002% final concentration) containing the peptide in serial two-fold dilutions. The following microorganisms were used to determine antibiotic selectivity of the peptides: Escherichia coli ATCC 25922, Klebsiella pneumoniae ATCC 13883 and Acinetobacter baumannii DSM 30008.

[3] = system: Acinetobacter baumannii DSM 30008; assay type: cell-based
Procedure: as §1, §2

[4] = system: Escherichia coli ATCC 25922; assay type: cell-based
Procedure: as §1, §2

[5] = 100 μg/mL, 20% hRBC, 1 h at 37° C.
[6] = Mueller-Hinton II broth, 18-20 hours at 35° C.

Structure (SMILES)	Hemolysis at 100 μg/mL [1, 5] [%]	Klebsiella pneumoniae ATCC 13883 MIC [2, 6] [µg/mL]	Acinetobacter baumannii DSM 30008 MIC [3, 6] [µg/mL]	Escherichia coli ATCC 25922 MIC [4, 6] [µg/mL]	Hemolysis at 100 μg/mL ([1]; red cells of human, 1 h, 100) [%]	Klebsiella pneumoniae ATCC 13883 MIC ([2]; ATCC 13883) [µg/mL]	Acinetobacter baumannii DSM 30008 MIC ([3]; DSM 30008) [µg/mL]	Escherichia coli ATCC 25922 MIC ([4]; ATCC 25922) [µg/mL]
CC(C)C[C@@H]1NC(=O)[C@H](CCCNC(=N)N)NC(=O)[C@H]2CCCN2C(=O)[C@H](C(C)C)NC(=O)[C@@H]2CSSC[C@H](NC1=O)C(=O)N[C@@H](Cc1ccc(O)cc1)C(=O)N[C@@H](C)C(=O)N[C@@H](CCN)C(=O)N[C@@H](CCN)C(=O)N[C@@H](CCN)C(=O)N[C@@H](Cc1c[nH]c3ccccc13)C(=O)N[C@@H](C)C(=O)N[C@@H](C(C)C)C(=O)N2 [Example 1, cyclo(-Leu-Cys-Tyr-Ala-Dab-Dab-Dab-Trp-Ala-Val-Cys-Val-^DPro-Arg-)] (HELM PEPTIDE1{A.[Dab].[Dab].[Dab].W.A.V.C.V.[dP].R.L.C.Y}$PEPTIDE1,PEPTIDE1,8:R3-13:R3|PEPTIDE1,PEPTIDE1,1:R1-14:R2$$$V2.0)	5	1	0.75	2	–	–	–	–
CC(C)C[C@@H]1NC(=O)[C@H](CCCNC(=N)N)NC(=O)[C@H]2CCCN2C(=O)[C@H](C(C)C)NC(=O)[C@@H]2CSSC[C@H](NC1=O)C(=O)N[C@@H](Cc1ccc(O)cc1)C(=O)N[C@@H](C)C(=O)N[C@@H](CCN)C(=O)N[C@H](CCN)C(=O)N[C@@H](CCN)C(=O)N[C@@H](Cc1c[nH]c3ccccc13)C(=O)N[C@@H](C)C(=O)N[C@@H](C(C)C)C(=O)N2 [Example 2, cyclo(-Leu-Cys-Tyr-Ala-Dab-^DDab-Dab-Trp-Ala-Val-Cys-Val-^DPro-Arg-)] (HELM PEPTIDE1{A.[Dab].[NCC[C@@H](N[*:1])C(=O)[*:2]].[Dab].W.A.V.C.V.[dP].R.L.C.Y}$PEPTIDE1,PEPTIDE1,8:R3-13:R3|PEPTIDE1,PEPTIDE1,1:R1-14:R2$$$V2.0)	–	–	–	–	5	2	2.5	4
CC(C)C[C@@H]1NC(=O)[C@H](CCCNC(=N)N)NC(=O)[C@H]2CCCN2C(=O)[C@H](C(C)C)NC(=O)[C@@H]2CSSC[C@H](NC1=O)C(=O)N[C@@H](Cc1ccc(O)cc1)C(=O)N[C@@H](C)C(=O)N[C@@H](CCCN)C(=O)N[C@H](CCN)C(=O)N[C@@H](CCN)C(=O)N[C@@H](Cc1c[nH]c3ccccc13)C(=O)N[C@@H](C)C(=O)N[C@@H](C(C)C)C(=O)N2 [Example 3, cyclo(-Leu-Cys-Tyr-Ala-Orn-^DDab-Dab-Trp-Ala-Val-Cys-Val-^DPro-Arg-)] (HELM PEPTIDE1{A.[Orn].[NCC[C@@H](N[*:1])C(=O)[*:2]].[Dab].W.A.V.C.V.[dP].R.L.C.Y}$PEPTIDE1,PEPTIDE1,8:R3-13:R3|PEPTIDE1,PEPTIDE1,1:R1-14:R2$$$V2.0)	–	–	–	–	4	1	1	2
CC(C)C[C@@H]1NC(=O)[C@H](CCN)NC(=O)[C@@H](CCN)NC(=O)[C@H](CCCN)NC(=O)[C@H](CC(N)=O)NC(=O)[C@H](Cc2ccc(O)cc2)NC(=O)[C@@H]2CSSC[C@H](NC(=O)[C@H](C(C)(C)C)NC(=O)[C@H](CO)NC1=O)C(=O)N[C@@H](C(C)C)C(=O)N[C@H](CCN)C(=O)N[C@@H](CCCNC(=N)N)C(=O)N[C@@H](CC(C)C)C(=O)N2 [Example 4, cyclo(-Leu-Cys-Tyr-Asn-Orn-^DDab-Dab-Leu-Ser-tBuGly-Cys-Val-^DDab-Arg-)] (cyclo(CV[dDab]RLCYN[Orn][dDab][Dab]LS[Tle]); disulfide 1-6)	–	–	–	–	4	0.5	0.25	0.75
CC[C@H](C)[C@@H]1NC(=O)[C@H](CCCNC(=N)N)NC(=O)[C@@H](CCN)NC(=O)[C@H](Cc2ccc(O)cc2)NC(=O)[C@@H]2CSSC[C@H](NC1=O)C(=O)N[C@@H](Cc1ccc(O)cc1)C(=O)N[C@@H](CC(N)=O)C(=O)N[C@@H](CCCN)C(=O)N[C@H](CCN)C(=O)N[C@@H](CCN)C(=O)N[C@@H](CC(C)C)C(=O)N[C@@H](CO)C(=O)N[C@@H](C(C)C)C(=O)N2 [Example 5, cyclo(-Ile-Cys-Tyr-Asn-Orn-^DDab-Dab-Leu-Ser-Val-Cys-Tyr-^DDab-Arg-)] (HELM PEPTIDE1{C.Y.N.[Orn].[NCC[C@@H](N[*:1])C(=O)[*:2]].[Dab].L.S.V.C.Y.[NCC[C@@H](N[*:1])C(=O)[*:2]].R.I}$PEPTIDE1,PEPTIDE1,1:R3-10:R3|PEPTIDE1,PEPTIDE1,1:R1-14:R2$$$V2.0)	–	–	–	–	4	0.25	0.25	0.5
CC(C)C[C@@H]1NC(=O)[C@H](CCN)NC(=O)[C@@H](CCN)NC(=O)[C@H]([C@@H](C)O)NC(=O)[C@@H]2CSSC[C@H](NC1=O)C(=O)N[C@@H](Cc1ccc(O)cc1)C(=O)N[C@@H](CC(N)=O)C(=O)N[C@@H](CCCN)C(=O)N[C@H](CCN)C(=O)N[C@@H](CCN)C(=O)N[C@@H](Cc1c[nH]c3ccccc13)C(=O)N[C@@H](CO)C(=O)N[C@@H](C(C)(C)C)C(=O)N2 [Example 6, cyclo(-Leu-Cys-Tyr-Asn-Orn-^DDab-Dab-Trp-Ser-tBuGly-Cys-Thr-^DDab-Dab-)] (cyclo(CT[dDab][Dab]LCYN[Orn][dDab][Dab]WS[Tle]); disulfide 1-6)	5	0.5	0.5	0.5	–	–	–	–
CC(C)C[C@@H]1NC(=O)[C@H](CCN)NC(=O)[C@@H](CCN)NC(=O)[C@H]([C@@H](C)O)NC(=O)[C@@H]2CSSC[C@H](NC1=O)C(=O)N[C@@H](Cc1ccc(O)cc1)C(=O)N[C@@H](CC(N)=O)C(=O)N[C@@H](CCCN)C(=O)N[C@H](CCN)C(=O)N[C@@H](CCN)C(=O)N[C@@H](Cc1c[nH]c3ccccc13)C(=O)N[C@@H](CO)C(=O)N[C@@H](Cc1ccc(O)cc1)C(=O)N2 [Example 7, cyclo(-Leu-Cys-Tyr-Asn-Orn-^DDab-Dab-Trp-Ser-Tyr-Cys-Thr-^DDab-Dab-)] (HELM PEPTIDE1{C.T.[NCC[C@@H](N[*:1])C(=O)[*:2]].[Dab].L.C.Y.N.[Orn].[NCC[C@@H](N[*:1])C(=O)[*:2]].[Dab].W.S.Y}$PEPTIDE1,PEPTIDE1,1:R3-6:R3|PEPTIDE1,PEPTIDE1,1:R1-14:R2$$$V2.0)	–	–	–	–	1	1	2	2
CC(C)C[C@@H]1NC(=O)[C@H](CCN)NC(=O)[C@@H](CCN)NC(=O)[C@H](CO)NC(=O)[C@@H]2CSSC[C@H](NC1=O)C(=O)N[C@@H](Cc1ccc(O)cc1)C(=O)N[C@@H](CC(N)=O)C(=O)N[C@@H](CCCN)C(=O)N[C@H](CCN)C(=O)N[C@@H](CCN)C(=O)N[C@@H](Cc1c[nH]c3ccccc13)C(=O)N[C@@H](CO)C(=O)N[C@@H](Cc1ccc(O)cc1)C(=O)N2 [Example 8, cyclo(-Leu-Cys-Tyr-Asn-Orn-^DDab-Dab-Trp-Ser-Tyr-Cys-Ser-^DDab-Dab-)] (HELM PEPTIDE1{C.S.[NCC[C@@H](N[*:1])C(=O)[*:2]].[Dab].L.C.Y.N.[Orn].[NCC[C@@H](N[*:1])C(=O)[*:2]].[Dab].W.S.Y}$PEPTIDE1,PEPTIDE1,1:R3-6:R3|PEPTIDE1,PEPTIDE1,1:R1-14:R2$$$V2.0)	–	–	–	–	1	0.5	1.5	1
CC(C)[C@@H]1NC(=O)[C@@H]2CCCN2C(=O)[C@H](C)N(C)C(=O)[C@H](CO)NC(=O)[C@@H]2CSSC[C@H](NC1=O)C(=O)N[C@@H](Cc1ccc(O)cc1)C(=O)N[C@@H](CCN)C(=O)N[C@@H](CN)C(=O)N[C@H](CCN)C(=O)N[C@@H](CCN)C(=O)N[C@@H](Cc1c[nH]c3ccccc13)C(=O)N[C@@H](CCN)C(=O)N[C@@H](C(C)(C)C)C(=O)N2 [Example 9, cyclo(-Val-Cys-Tyr-Dab-Dap-^DDab-Dab-Trp-Dab-tBuGly-Cys-Ser-NMeAla-Pro-] (cyclo(CS[NMeA]PVCY[Dab][Dap][dDab][Dab]W[Dab][Tle]); disulfide 1-6)	–	–	–	–	2	0.5	1	0.5
